What was measured:
Assay type in all cases: cell-based
[1] = system: Staphylococcus epidermidis Ax25; assay: MIC microtiter plate test, axilla strain Ax 25; settings: for Minimal inhibitory concentration (MIC) Ax 25: Table 1, growth inhibited by at least 80%, 24 h at 36° C.
From the text: (§1) The different bacterial strains had been isolated from the human axilla by current microbiological practice. They were taxonomically identified by cell morphology, gram-reaction, and biochemical tests included in the Api coryne test kit (BioMerieux, France). Strain Staphylococcus epidermidis Ax25 was identified by fatty acid methyl ester analysis (FAME; German type strain collection DSMZ, Germany). The strains were maintained on Tryptic soy […] plates, this standard medium being amended with 5 g per Liter of Tween 80 and 1 g of Soybean lecithin. Plates were incubated at 36° C. for a period 48 hours. The bacteria were then swabbed from the plates and suspended in 4 ml of Müller-Hinton broth amended with 100 mg of Tween 80 per Liter (MH-Tween) and incubated again at 36° C. for 16 hours. Following incubation the bacterial suspensions were diluted in MH-Tween to obtain a final cell density of 10^6 colony forming units per ml. For each fragrance material four microtiter plates were used in the example, each microtiter plate having 8 rows, A-H, and 12 columns, 1-12.
(§2) To each column a diluted suspension of a different test organism was distributed, 100 μl per well. 1% stock solutions of the fragrance materials were then prepared in MH-Tween broth. The fragrance material was dispersed by ultrasonication into the aqueous medium to obtain a homogenous emulsion. 100 μl per well of this emulsion was then added to the first row of the microtiter plates already containing the target organisms. Serial dilution series were then prepared starting at row A and continuing until row G, each time removing 100 μl from a well and transferring it to the next well. In this way fragrance concentrations of 0.5%, 0.25%, 0.125%, 0.0625%, 0.03125%, 0.0156%, and 0.0078% were tested for their antibacterial efficacy. The reference compound Triclosan was tested at 16-fold lower concentrations. The plates were covered with plastic films and incubated for 24 h at 36° C. with shaking at 250 rpm. The turbidity developing in the microtiter plates was then examined after 24 h to determine microbial growth. The minimal concentration of fragrance inhibiting the growth of an organism by at least 80% was determined as the minimal inhibitory concentration (MIC).
(§3) Ax 25 was identified as Staphylococcus. epidermidis by FAME analysis. Identification with the Api Coryne test kit yielded the following species assignments for the remainder of the strains: Ax 26 Corynebacterium sp.; Ax 3 Corynebacterium bovis; Ax 7 Corynebacterium group G; Ax 10 Corynebacterium jeikeium; Ax 11 Corynebacterium jeikeium; Ax 12 Corynebacterium jeikeium; Ax 15 Corynebacterium jeikeium; Ax 20 Corynebacterium striatum/amycolatum; and Ax 19 Corynebacterium jeikeium. The strains were isolated from the axilla of 8 human volunteers. Based on biochemical tests and colony morphology all strains were distinct from each other, even the several strains all belonging to Corynebacterium jeikeium.

[2] = system: Ax 15 Corynebacterium jeikeium; assay: MIC microtiter plate test, axilla strain Ax 15; settings: for Minimal inhibitory concentration (MIC) Ax 15: Table 1, growth inhibited by at least 80%, 24 h at 36° C.
From the text: as §1, §2, §3

[3] = system: Ax 26 Corynebacterium sp.; assay: MIC microtiter plate test, axilla strain Ax 26; settings: for Minimal inhibitory concentration (MIC) Ax 26: Table 1, growth inhibited by at least 80%, 24 h at 36° C.; for Bacteriostatic activity Corynebact. Ax 26: Table 7, concentration for at least 80% reduction in growth during 24 hours
From the text: as §1, §2, §3

[4] = system: Ax 7 Corynebacterium group G; assay: MIC microtiter plate test, axilla strain Ax 7; settings: for Minimal inhibitory concentration (MIC) Ax 7: Table 1, growth inhibited by at least 80%, 24 h at 36° C.
From the text: as §1, §2, §3

[5] = system: Ax 19 Corynebacterium jeikeium; assay: MIC microtiter plate test, axilla strain Ax 19; settings: Table 1; growth inhibited by at least 80%, 24 h at 36° C.
From the text: as §1
To each column a diluted suspension of a different test organism was distributed, 100 μl per well. 1% stock solutions of the fragrance materials were then prepared in MH-Tween broth. The fragrance material was dispersed by ultrasonication into the aqueous medium to obtain a homogenous emulsion. […]

[6] = system: Ax 3 Corynebacterium bovis; assay: MIC microtiter plate test, axilla strain Ax 3; settings: Table 1; growth inhibited by at least 80%, 24 h at 36° C.
From the text: as §1
as §2, with “The minimal concentration of fragrance inhibiting the growth of an organism by at least 80% was determined as the minimal inhibitory concentration (MIC).” left out

[7] = system: Ax 20 Corynebacterium striatum/amycolatum; assay: MIC microtiter plate test, axilla strain Ax 20; settings: Table 1; growth inhibited by at least 80%, 24 h at 36° C.
From the text: as §1
as §2, with “The minimal concentration of fragrance inhibiting the growth of an organism by at least 80% was determined as the minimal inhibitory concentration (MIC).” left out

[8] = system: Ax 12 Corynebacterium jeikeium; assay: MIC microtiter plate test, axilla strain Ax 12; settings: Table 1; growth inhibited by at least 80%, 24 h at 36° C.
From the text: as §1
as §2, with “The minimal concentration of fragrance inhibiting the growth of an organism by at least 80% was determined as the minimal inhibitory concentration (MIC).” left out

[9] = system: Ax 10 Corynebacterium jeikeium; assay: MIC microtiter plate test, axilla strain Ax 10; settings: Table 1; growth inhibited by at least 80%, 24 h at 36° C.
From the text: as §1
as §2, with “The minimal concentration of fragrance inhibiting the growth of an organism by at least 80% was determined as the minimal inhibitory concentration (MIC).” left out

[10] = system: Ax 11 Corynebacterium jeikeium; assay: MIC microtiter plate test, axilla strain Ax 11; settings: Table 1; growth inhibited by at least 80%, 24 h at 36° C.
From the text: as §1
as §2, with “The minimal concentration of fragrance inhibiting the growth of an organism by at least 80% was determined as the minimal inhibitory concentration (MIC).” left out

[11] = system: Corynebacteria; assay: Activity against Corynebacteria; settings: statement in words
From the text: With 2-methoxy-4-(5,5,6-trimethylbicyclo[2.2.1]hept-2-yl)cyclohexan-1-ol an outstanding activity is achieved.
as §1
To each column a diluted suspension of a different test organism was distributed, 100 μl per well. 1% stock solutions of the fragrance materials were then prepared in MH-Tween broth. […]

[12] = Table 7, concentration for at least 80% reduction in growth during 24 hours

Row | Compound | Minimal inhibitory concentration (MIC) Ax 25 [1] [% weight/volume] | Minimal inhibitory concentration (MIC) Ax 15 [2] | Minimal inhibitory concentration (MIC) Ax 26 [3] [% weight/volume] | Minimal inhibitory concentration (MIC) Ax 7 [4] [% weight/volume] | Minimal inhibitory concentration (MIC) Ax 3 [6] [% weight/volume] | Minimal inhibitory concentration (MIC) Ax 20 [7] [% weight/volume] | Bacteriostatic activity Corynebact. Ax 26 [3] | Minimal inhibitory concentration (MIC) Ax 12 [8] [% weight/volume] | Minimal inhibitory concentration (MIC) Ax 10 [9] [% weight/volume] | Minimal inhibitory concentration (MIC) Ax 11 [10] [% weight/volume] | further results
1 | CCC(=CCC1CC=C(C)C1(C)C)CO (centres unmarked) [Radjanol] | 0.1250 | 0.125. % weight/volume | 0.0625 | 0.0625 | – | – | – | – | – | – | –
2 | Oc1cc(Cl)ccc1Oc1ccc(Cl)cc1Cl [Triclosan, 2,4,4′-trichloro-2′-hydroxy-diphenyl-ether] | 0.000015 | 0.0029 % weight/volume | 0.0015 | 0.0029 | 0.0029 | 0.0107 | 0.0025 percent (w/v) | 0.0017 | 0.0020 | 0.0029 | Minimal inhibitory concentration (MIC) Ax 19 [5]: 0.0039 % weight/volume; Bacteriostatic activity S. epidermidis [1, 12]: 0.000015 percent (w/v); Bacteriostatic activity Corynebact. Ax 15 [2, 12]: 0.0030 percent (w/v); Bacteriostatic activity Corynebact. Ax 7 [4, 12]: 0.0025 percent (w/v)
3 | CC1=CCC(/C=C\C(C)C(C)O)C1(C)C (centres unmarked) [Ebanol] | 0.1250 | 0.2500 % weight/volume | 0.1250 | 0.1250 | 0.1250 | 0.1250 | – | 0.2500 | 0.2500 | 0.2500 | –
4 | COC1CC(C2CC3CC2C(C)C3(C)C)CCC1O (single isomer, unassigned) [Peak B] | – | – | – | – | – | – | 0.0016 percent (w/v) | – | – | – | –
5 | COC1CC(C2CC3CC2C(C)C3(C)C)CCC1O (centres unmarked) [2-methoxy-4-(5,5,6-trimethylbicyclo[2.2.1]hept-2-yl)cyclohexan-1-ol] | – | – | – | – | – | – | – | – | – | – | activity against Corynebacteria [11]: highest activity
6 | CC1=CCC(CCC(C)C(C)O)C1(C)C (centres unmarked) [Sandalore] | 0.1250 | 0.2500 % weight/volume | 0.1250 | 0.1250 | 0.1250 | 0.1250 | – | 0.1250 | 0.1250 | 0.1250 | –
7 | CC(C)=CCCC(C)=CCCC(C)=CCO [Farnesol, 3,7,11-trimethyl-2,6,10-dodecatrien-1-ol] | – | – | 0.0078 | – | – | – | 0.0078 percent (w/v) | – | – | – | –
8 | COC1CCC(C2CC3CC2C(C)C3(C)C)CC1O (centres unmarked) [2-methoxy-5-(5,5,6-trimethyl-bicyclo[2.2.1]hept-2-yl)cyclohexan-1-ol] | – | – | – | – | – | – | – | – | – | – | activity against Corynebacteria [11]: highest activity

— patent US20050101678A1, “Antibacterial composition” (priority 2000, published 2005)
